In a melting point compilation (Tetko et al.; mined from patent text by program, amines drawn as free bases though some values may be those of a salt):

| Structure (SMILES) | melting point [°C] |
| --- | --- |
| Cc1cc(-c2cccc(C(=O)CC(=O)Nc3cc(-c4ccc(F)cc4)ccc3NC(=O)OC(C)(C)C)c2)on1 | 100 to 101 |
| Cc1nc2nc(SCc3ccccc3)nn2cc1Cl | 160 to 161 |
| Fc1nc(NCc2ccncc2)c2nc[nH]c2n1 | 200 to 202 |
| COC(=O)Cc1c(Cl)nc(-c2ccccc2)n1Cc1ccc(C)cc1 | 92 to 95 |
| COc1cn(-c2ccc(-c3cnn(C)c3)cc2F)nc(-c2ccnn2-c2ccccc2)c1=O | 195 to 197 |
| COc1ccc(C(=O)Nc2ccccc2)cc1NCc1cccc(C#N)c1 | 172 to 174 |
| Cc1ccc(S(=O)(=O)OCCCOc2ccc([N+](=O)[O-])c(CS(=O)(=O)c3cccc4ccccc34)c2)cc1 | 162 to 164 |
| COc1ccc(C2=NN(c3nc(-c4cccs4)ns3)C(=O)[C@H]3CC=CC[C@@H]23)cc1Cl (relative stereo) | 254 to 256 |
| CCCCNC(=O)[C@@H]1C[C@]2(NC(=O)N(CCCN3CCC(O)CC3)C2=O)c2cc(F)ccc2O1 | 86 to 88 |
| CCCCNC(=O)Nc1ccccc1C(=O)NC1CCN(C(c2ccccc2)c2ccccc2)CC1 | 204 to 206 |
| N#Cc1cc(F)c(-n2nc(C(F)(F)F)[nH]c2=O)cc1F | 51 |
| O=C(NC1CCC(CCN2CCC(c3cccc4c3CCO4)CC2)CC1)c1ccc(N2CCS(=O)(=O)CC2)cc1 (centres undefined) | 282 |
| CN(C)C=NS(=O)(=O)c1c(C(F)(F)F)nc2ccc(Cl)nn12 | 204 to 205 |
| CC(=O)Nc1nc2c(c(=O)[nH]1)CCC(O)N2C(C)=O (centres undefined) | 202 to 205 |
| CC(=O)Nc1ccc(-c2ccc(NC(C)=O)cc2I)c(I)c1 | 300 to 301 |
| CC(C)Oc1ccc(-n2c(CC(=O)O)c(C(=O)O)c3cc(Oc4ncccc4C(=O)O)ccc32)cc1 | 212 to 214 |
| CN1C(=O)C(O)(c2ccccc2)c2cccc(Cl)c21 (centres undefined) | 125 to 127 |
| O=C(Nc1ccccc1)N1CC(Oc2cccc(C(F)(F)F)c2)C1 | 137 to 138 |
| CC(C)(C)[C@H]1N(c2ccc(C#N)c3ccccc23)C(=O)[C@@H]2C[C@@H](OCc3ccccc3)CN21 | 155 to 157 |
| O=c1[nH]c2cccc(OCCNCc3ccc(Cl)cc3)c2[nH]c1=O | > 250 |
| Cc1ccc(-c2cc3ccc4ccccc4c3o2)cc1 | 97 to 100 |

| Structure (SMILES) | melting point [°C] |
| --- | --- |
| N#Cc1ccc2c(c1)CCCC2(O)c1ccns1 (centres undefined) | 182 to 184 |
| CN(C)c1ccc(NC(=O)N(C[C@@H]2CCCC[C@H]2CN(C(=O)Nc2ccc(N(C)C)cc2)C2CCCCCC2)C2CCCCCC2)cc1 (relative stereo) | 107 to 112 |
| O=C(CCCN1CCOCC1)c1ccc2c(c1)C(=O)c1cc(C(=O)CCCN3CCOCC3)ccc1-2 | 174 to 176 |
| CCc1nc2c(N)nc3ccccc3c2n1CCCS(=O)(=O)N(C)C | 209 to 211 |
| COc1ccc(CSc2nnc(-c3ccn4ncnc4c3)o2)cc1C(F)(F)F | 178 to 179 |
| CC1(C)Oc2ccc(C#N)cc2C(n2ccccc2=O)C1O (centres undefined) | 243 |
| Cc1nn(-c2ccc(NC=C3C(=O)NC(=O)c4ccc(Br)cc43)cc2)c(C)c1Cl | 290 to 291 |
| C[Si](C)(C)CC(O)(Cn1nc[nH]c1=S)c1ccc(F)cc1 (centres undefined) | 107 |
| CCOC(=O)C(Cl)=NO | 75 to 80 |
| Cc1ccc(N2C(=O)C(O)=C(C(=O)c3ccc(OC(F)(F)F)cc3)C2c2ccc(C(C)C)cc2)nn1 (centres undefined) | 269 |
| COc1ccc(-c2cc(=O)c3c(OC)cc(OC)c(C4=CCN(C)CC4)c3o2)cc1 | 179 to 181 |
| NC(=O)c1cn(Cc2ccccc2F)cn1 | 204 to 205 |
| CCOc1ncc(SC)cc1C(=O)O | 78 to 92 |
| CO[C@]1(c2cc(F)cc(Sc3ccc4c(c3)CC/C4=N\O)c2)CCO[C@@H]1C (racemic) | 136 to 137 |
| CC(C)(C)NC(=O)c1ccc(C(O)CCCc2cn([Si](C)(C)C)cn2)cc1 (centres undefined) | 141 to 143 |
| Brc1ccc2c(c1)C1(OCCCO1)C1=NCCCN12 | 145 to 149 |
| N#CCc1ccc(NC(=O)C(F)(F)C(F)(F)C(F)(F)C(F)(F)F)cc1 | 126 to 128 |
| CCOC(=O)c1cc(O)c2nc(C3CC3)n(C)c2c1 | 201 to 202 |
| COc1cc2cc(CO)c(CO)c(-c3ccnc(Nc4ccccc4CCCO)c3)c2cc1OC | 156 to 158 |
| CCOC(=O)c1nn(-c2ccccc2Cl)c(=O)c(C#N)c1C | 93 to 95 |
| CC(C)(CO)NC(=O)c1ccncc1C1=CCCc2ccccc21 | 157 |

The next lines start with the values.

| melting point [°C] | Structure (SMILES) |
| --- | --- |
| 244 to 245 | O=C(O)C1c2ccccc2C=Cc2ccccc21 |
| 260 to 262 | Cc1nn(-c2ccccn2)c2[nH]c3ccc(N)cc3c(=O)c12 |
| 125 to 126 | OCCCC#Cc1ccc(C(=C2CCCCCC2)c2ccc(O)cc2)cc1 |
| 175 to 177 | COC(=O)C(C)[C@H]1CC[C@H]2[C@@H]3CCC4=CC(=O)CC[C@]4(C)[C@H]3CC[C@]12C (some centres undefined) |
| 85 to 87 | O=C(Nc1ccc2[nH]cnc2c1)C(=O)N1CCC(Cc2ccccc2)CC1 |
| 194 to 196 | COC(=O)[C@@](C#N)(Cc1ccccn1)[C@H](c1ccccc1OC)c1cccc2ccccc12 (relative stereo) |
| 69 to 70 | CC(C)(C)OC(=O)N1CCC(=Cc2ccc(F)cc2)CC1 |
| 98 to 100 | Cc1nc(OC(C)C)c([N+](=O)[O-])c(N2CCN(c3ccc(F)cc3)CC2)n1 |
| 182 to 183 | O=C(O)c1ccc(OCCCO/N=C/c2cc(C(F)(F)F)cc(C(F)(F)F)c2)cc1O |
| > 300 | CC1CCc2ccc(C#N)c3c(=O)c(C(=O)O)cn1c23 (centres undefined) |
| 142 to 143 | Cc1nc(N2CCN(CC3CCCC3)C2=O)sc1C(=O)NCc1cccnc1 |
| 72.5 to 73.5 | COC(=O)[C@@H]1c2ccccc2C[C@@H]1O |
| 50 to 62 | CC1COC(c2cnc(C3=NC(C)(C(C)C)C(=O)N3)c(C(=O)O)c2)O1 (centres undefined) |
| 159 to 160 | CS(=O)(=O)C(S(C)(=O)=O)S(=O)(=O)Oc1ccccc1 |
| 223 to 225 | COc1ccc2[nH]cc(S(=O)(=O)c3ccccc3)c2n1 |
| 165 to 166 | N#CC(C#N)=Cc1ccc(OS(=O)(=O)c2cc(Cl)c(Cl)cc2Cl)cc1 |
| 132 to 137 | CC(=O)Nc1ccc(C[C@H](NC(=O)N(CCO)CCc2ccccc2)C(=O)NCCN(C)C)cc1 |
| 73 to 74 | CCCCCCC1C(=O)CCC1C(=O)O (centres undefined) |
| 113 to 120 | COc1cc(OCc2ccccn2)ccc1/C=C/c1cc(/C=C/c2ccc3[nH]nnc3c2)n[nH]1 |
| 137 to 139 | CC(C)(C)c1ccc([N+](=O)[O-])c(C(=O)O)c1 |
| 102 to 103 | CC(C)(C)OC(=O)[C@@H]1CCCN1C(=O)C1CCC1SC(=O)c1ccccc1 (some centres undefined) |
| 141 to 144 | CC(O)(c1ccccc1)c1ccncc1 (centres undefined) |
| 213 to 216 | CC(CO)NC1=NS(=O)(=O)c2cnccc2N1 (centres undefined) |
| 112 to 114 | CC(=O)C(=NNc1cccc(C)c1)Sc1ccc(Cl)cc1 |
| 196 | OC1CSC(Oc2ccccc2-c2nc3ccccc3s2)C(O)C1O (centres undefined) |
| 157 to 158 | CC(C)=CCc1cc(C(=O)C=Cc2ccc(O)cc2)c(O)cc1O |
| 156 to 160 | CCCN(C)CCCN1CCN(c2cc(-c3ccnc(NCc4cccc(OC)c4)n3)cc3ccc(OC)cc23)CC1 |
